Active and inactive are the calls of the source. No cut-off for these calls is given here.
Columns and labels:
[1] = target: Eukaryotic translation initiation factor 4E/Eukaryotic translation initiation factor 4E-binding protein 1 (Homo sapiens, UniProt P06730+Q13541); test: Inhibition of eIF4E-4E-BP1 (unknown origin) interaction by cat-ELCCA assay; type: protein assay
[2] = target: Eukaryotic translation initiation factor 4E (Homo sapiens) (UniProt P06730); test: Binding affinity to eIF4E in HEK293 cell lysate assessed as thermal stability at 25 uM at 42 to 53 degreeC by CETSA; type: subcellular
MIA PaCa-2 = test: Antiproliferative activity against human MIA PaCa-2 cells by Cell Titer Glo assay; type: functional, cell-based

Eukaryotic translation initiation factor 4E/Eukaryotic translation initiation factor 4E-binding protein 1, sequence (P06730 whole entry): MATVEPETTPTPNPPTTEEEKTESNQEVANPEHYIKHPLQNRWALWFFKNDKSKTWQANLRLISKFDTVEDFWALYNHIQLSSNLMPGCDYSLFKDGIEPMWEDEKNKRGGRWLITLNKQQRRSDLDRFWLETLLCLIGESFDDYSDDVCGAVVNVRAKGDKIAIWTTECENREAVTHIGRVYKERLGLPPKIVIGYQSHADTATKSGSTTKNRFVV
Eukaryotic translation initiation factor 4E/Eukaryotic translation initiation factor 4E-binding protein 1, sequence (Q13541 whole entry): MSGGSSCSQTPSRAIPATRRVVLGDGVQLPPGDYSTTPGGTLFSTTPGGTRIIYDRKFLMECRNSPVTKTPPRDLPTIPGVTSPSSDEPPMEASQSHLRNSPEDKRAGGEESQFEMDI
Eukaryotic translation initiation factor 4E (Homo sapiens), sequence (P06730 whole entry): as the sequence (P06730 whole entry) above

EC50 ([1]; read-out: EC50) [µM]	SMILES	other results
7.8	O=C(O)c1cc2c(c3nc4c(O)cccc4nc13)O[C@@H]1[C@H](O)c3nc4cccc(O)c4nc3C[C@H]21	Activity [2]: Active; Activity (MIA PaCa-2): inactive
240	O=C(O)c1cc2c(c3nc4c(O)cccc4nc13)[C@@H]1Cc3nc4cccc(O)c4nc3[C@@H](O)[C@@H]1O2 [IZUMIPHENAZINE A]	–

Continued, compound first:

SMILES	EC50 ([1]; read-out: EC50) [µM]	other results
O=C(O)c1cc2c(c3nc4c(O)cccc4nc13)[C@@H]1Cc3nc4cccc(O)c4nc3[C@H](O2)[C@H]1O	260	–
O=C(O)c1cc2c(c3nc4c(O)cccc4nc13)[C@@H]1Cc3nc4cccc(O)c4nc3[C@@](O)(C1)O2	–	EC50 [1]: Not Active
O=C(O)c1ccc(=O)c2nc3c4c(ccc3[nH]c1-2)[C@@H]1Cc2nc3cccc(O)c3nc2[C@H](O4)[C@H]1O	68	–
Oc1cccc2nc3c(O)cccc3nc12	–	EC50 [1]: Not Active
O=C(O)c1ccc(O)c2nc3c4c(ccc3nc12)[C@@H]1Cc2nc3cccc(O)c3nc2[C@H](O4)[C@H]1O	310	–

From ChEMBL document CHEMBL5360598, “An ECD and NMR/DP4+ Computational Pipeline for Structure Revision and Elucidation of Diphenazine-Based Natural Products” (J Nat Prod, 2023)
